Measurements reported in ChEMBL document CHEMBL1151180, “Madhucosides A and B, protobassic acid glycosides from Madhuca indica with inhibitory activity on free radical release from phagocytes” (J Nat Prod, 2004).
Converted amounts (≈) assume the structure as drawn.

Key:
[1] = Inhibition of superoxide production in PMNCs by NBT reduction assay; format: functional
[2] = Inhibition of superoxide production in PMNCs at 200 ug/mL by NBT reduction assay; format: functional
Neutrophil = assay: Inhibition of hypochlorous production in PMA-stimulated human neutrophils by luminol-enhanced chemiluminescence assay; format: functional, cell-based

Row | Compound | IC50 [1] [µg/mL] | inhibition at 200 µg/mL [2] [%] | IC50 (Neutrophil) [µg/mL]
1 | O=c1c(O)c(-c2ccc(O)c(O)c2)oc2cc(O)cc(O)c12 [QUERCETIN] | 111 (≈ 367 µM) | – | –
2 | O=C1O[C@H]([C@@H](O)CO)C(O)=C1O [ASCORBIC ACID] | 14.1 (≈ 80.1 µM) | – | –
3 | C[C@@H]1O[C@@H](O[C@H]2[C@H](O)[C@@H](O[C@@H]3OC[C@@H](O)[C@H](O)[C@H]3O)[C@H](O[C@@H]3[C@@H](O)[C@H](C)O[C@@H](O[C@H]4[C@H](OC(=O)[C@]56CCC(C)(C)C[C@@H]5C5=CC[C@@H]7[C@@]8(C)C[C@H](O)[C@H](O)[C@@](C)(CO[C@@H]9O[C@H](CO)[C@@H](O)[C@H](O)[C@H]9O[C@@H]9OC[C@](O)(CO)[C@H]9O)[C@@H]8[C@H](O)C[C@@]7(C)[C@]5(C)CC6)OC[C@H](O)[C@@H]4O)[C@@H]3O)O[C@@H]2CO)[C@H](O)[C@H](O)[C@H]1O | – | 16 | 144
4 | CC(C)=C[C@H]1C[C@](C)(O)[C@H]2[C@H]3CC[C@@H]4[C@@]5(C)CC[C@H](O[C@@H]6O[C@H](CO)[C@@H](O)[C@H](O[C@@H]7O[C@H](CO)[C@@H](O)[C@H](O)[C@H]7O)[C@H]6O[C@@H]6O[C@@H](CO)[C@H](O)[C@H]6O)C(C)(C)[C@@H]5CC[C@@]4(C)[C@@]34CO[C@@]2(C4)O1 [BACOSIDE A3] | – | – | 19.8
